2 compounds from US6930106B2, “Inhibitors of HCV NS5B polymerase” (Pharmacia & UpJohn Company, priority 2002, dated 2005) can be followed below.

In this assay the target is HCV NS5b RNA dependent RNA polymerase (Hepatitis C virus genotype 1a, UniProt P27958). As to the kind of experiment: HCV NS5b RNA dependent RNA polymerase inhibition assay (3H-GTP incorporation, scintillation proximity). In kind it is biochemical. Conditions: inhibition of HCV NS5b polymerase activity; Table 2; read-out: concentration in micromolar required for 50% inhibition. The procedure: Compounds of the present invention are evaluated for inhibition of HCV NS5b RNA dependent RNA polymerase activity in assays comprised of a suitable buffer (e.g. 20 mM Tris-HCl pH 7.6), primed or unprimed RNA templates, GTP, ATP, CTP, and UTP, MnCl2 or MgCl2, and reducing agent such as 10 mM dithiothreitol or 2-mercaptoethanol. The assay buffer may contain salts such as ammonium acetate, KCl, or NaCl, and nonionic or zwitterionic detergents such as Tween or CHAPS. The incorporation of nucleotides into the complementary RNA strand may be monitored by the incorporation of radiolabeled NTP (e.g. ^3H labeled GTP). Suitable RNA templates for de novo initiation in the presence of 20-50 μM GTP or ATP are the homopolymers poly rC and poly rU, respectively. Heteropolymer RNA templates with 1-3 cytidine (C) bases or 1-3 uridine (U) bases at the 3′ terminus of the template may also be used for de novo initiation. Primed RNA templates such as poly rC primed with oligo rG or oligo dG, and poly rA primed with oligo rU may also be used to detect polymerase activity. The primers may be any length greater than 10 bases. A biotin residue may be added to the 5′ end of the template or the 5′ end of the primer to capture the template and the newly synthesized, complementary strand on avidin coated spheres. […]
Chain of HCV NS5b RNA dependent RNA polymerase (P27958 2421-3011): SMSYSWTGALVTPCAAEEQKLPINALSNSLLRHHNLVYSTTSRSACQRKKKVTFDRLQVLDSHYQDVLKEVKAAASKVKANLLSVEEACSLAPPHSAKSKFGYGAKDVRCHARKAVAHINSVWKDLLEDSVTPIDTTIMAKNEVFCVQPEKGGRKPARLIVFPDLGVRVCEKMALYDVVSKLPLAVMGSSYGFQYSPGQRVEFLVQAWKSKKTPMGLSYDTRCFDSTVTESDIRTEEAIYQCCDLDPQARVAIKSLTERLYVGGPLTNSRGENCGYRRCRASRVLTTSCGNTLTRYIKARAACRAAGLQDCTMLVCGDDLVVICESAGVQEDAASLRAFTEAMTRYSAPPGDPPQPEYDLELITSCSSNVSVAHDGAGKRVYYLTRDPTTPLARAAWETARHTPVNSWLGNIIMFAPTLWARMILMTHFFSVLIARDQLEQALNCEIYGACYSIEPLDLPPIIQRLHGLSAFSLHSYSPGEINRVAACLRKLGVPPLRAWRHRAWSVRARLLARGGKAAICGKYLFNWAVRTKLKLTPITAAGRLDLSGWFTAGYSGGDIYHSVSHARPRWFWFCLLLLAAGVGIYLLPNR

Structures can show the parent of a compound that is named as a salt.

`NCc1ccc(Nc2ccc(C(F)(F)F)cc2NC(=O)c2cc(Cl)c(Cl)cc2C(=O)O)cc1` [i., 2-[[[2-[[4-(Aminomethyl)phenyl]amino]-5-(trifluoromethyl)phenyl]amino]carbonyl]-4,5-dichlorobenzoic acid monohydrochloride]: the IC50 amounted to 1.42 µM.
Turning to `N#Cc1ccc(Nc2ccc(C(F)(F)F)cc2NC(=O)c2ccccc2C(=O)O)cc1` [xvii., 2-({[2-[(4-cyanophenyl)amino]-5-(trifluoromethyl)phenyl]amino}carbonyl)benzoic acid], the IC50 worked out at 1.74 µM.
